Measurements as given in PubChem BioAssay AID743477 (Broad Institute, 2014).
Where “and” joins values, the source holds several entries; their conditions need not be identical. Equal values may be shown once. Calls of active or inactive are those of the source.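 The calls were made as follows: active = fitted curve drops to -35% activity change at a dose no higher than twice the top valid tested dose; inconclusive = no clear call, values can overlap the other calls; inactive = the rest, including effects opposite to the expected drop.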

What was measured:
[1] = test system: TC71 Ewing sarcoma viability, CellTiter-Glo ATP, 72 h; assay: killing of EWS/Fli1-dependent TC71 cells, confirmation, cell-based, luminescence, retest at dose, dry powder (AID 743477)
[2] = as above; conditions: TC71 Ewing sarcoma viability, CellTiter-Glo ATP, 72 h

| Structure (SMILES) | AC35 [1] | other results |
| --- | --- | --- |
| Cc1c([C@H](C(Cl)Cl)[C@H](O)[C@H]2C[C@H](C)C(=O)O2)ccc2c1C(=O)[C@H]1[C@H]2C[C@@H](Br)[C@@]23O[C@@H](CO[C@H]2O)C[C@]13C | < 50 nM | – |
| CN1CCN(CCOc2cc(OC3CCOCC3)c3c(Nc4c(Cl)ccc5c4OCO5)ncnc3c2)CC1 | 21200 nM | – |
| O=P1(NCCCl)OCCCN1CCCl (stereo not drawn) | – | activity change, negative = cytotoxicity ([2]; at 50 µM (top of the series)): 3.6% (inactive) |
| COc1ccc(-c2ccc3c(c2)[C@H]2[C@H](CCN2S(=O)(=O)c2ccc(OC)cc2)[C@@H](CO)N3)cc1 | 3720 nM | – |
| C[C@]1(c2nc3c(C(N)=O)cccc3[nH]2)CCCN1 | – | activity change, negative = cytotoxicity ([2]; at 26 µM (top of the series)): -3.66% (inactive) |
| CC(C)(O)CCc1ccc(O)c2c(=O)c3c(O)c4c(cc3oc12)O[C@H]1OC=C[C@@]41O | < 26 nM | – |
| Cc1ccc(S(=O)(=O)N2CC[C@@H]3[C@@H](CO)Nc4ccc(-c5ccc(C#N)cc5)cc4[C@@H]32)cc1 | 18600 nM | – |
| COc1ccc(S(=O)(=O)N2CC[C@@H]3[C@@H](CO)Nc4ccc(-c5ccc(C#N)cc5)cc4[C@@H]32)cc1 | 3780 nM | – |
| O=C(Cc1ccc(-c2ccc(OCCN3CCOCC3)cc2)cn1)NCc1ccccc1 | < 23.5 nM | – |
| COc1ccc(OC)c(-c2nnc3n2N=C(c2ccc(OC)c(OC)c2)CS3)c1 | 27.6 nM and 22.6 nM | – |
| CN(C)c1ccc2c(c1)OC(N)=C(C#N)C2c1cccc(F)c1 (stereo not drawn) | 21.4 nM | – |
| CN(C(=O)CCCOc1ccc2[nH]c(=O)ccc2c1)C1CCCCC1 | – | activity change, negative = cytotoxicity ([2]; at 26 µM (top of the series)): -11% (inactive) |
| N#CC1=C(N)Oc2cc(N)ccc2C1c1cccc(Br)c1 (stereo not drawn) | 183 nM | – |
| C=C([C@@H](O)[C@@H](C)O)[C@@H](OC)[C@]1(C)Cc2cc3cc(O[C@H]4CC(OC5CC(O)C(O)C(C)O5)C(O)C(C)O4)cc(O)c3c(O)c2C(=O)[C@H]1OC1CC(OC2CC(OC3CC(C)(O)C(O)C(C)O3)C(O)C(C)O2)C(O)C(C)O1 (stereo partly drawn) | 55.8 nM | – |
| N#CC1=C(N)Oc2cc(N)ccc2C1c1ccc2ccccc2c1 (stereo not drawn) | 11900 nM | – |
| COc1ccccc1-c1nnc2n1N=C(c1ccc(O)c(O)c1)CS2 | 1320 nM | – |
| COc1ccc(C2CNC(=O)C2)cc1OC1CCCC1 (stereo not drawn) | – | activity change, negative = cytotoxicity ([2]; at 26 µM (top of the series)): 1.67% (inactive) |
| COC(=O)c1ccc(C2C(C#N)=C(N)Oc3cc(N)ccc32)cc1 (stereo not drawn) | – | activity change, negative = cytotoxicity ([2]; at 26 µM (top of the series)): -13.5% (inactive) |
| N#CC1=C(N)Oc2cc(N)ccc2C1c1ccc(Cl)cc1 (stereo not drawn) | – | activity change, negative = cytotoxicity ([2]; at 26 µM (top of the series)): -10.5% (inactive) |
| N#CC1=C(N)Oc2ccc3ccccc3c2C1c1cccc(F)c1 (stereo not drawn) | 677 nM | – |
| COc1ccc(S(=O)(=O)N2CC[C@@H]3[C@@H](CO)Nc4ccc(-c5cccc(C#N)c5)cc4[C@@H]32)cc1 | 4140 nM | – |
| Cc1ccc([N+](=O)[O-])cc1S(=O)(=O)N(C)C | 7950 nM | – |
| Cc1cc(Nc2cc(N3CCN(C)CC3)nc(Sc3ccc(NC(=O)C4CC4)cc3)n2)n[nH]1 | 2150 nM | – |
| COc1ccc(S(=O)(=O)N2CC[C@@H]3[C@@H](CO)N(C)c4ccc(-c5ccc(F)cc5)cc4[C@@H]32)cc1 | 3410 nM | – |
| COc1cc([C@@H]2c3cc4c(cc3[C@@H](O[C@@H]3O[C@@H]5CO[C@@H](C)O[C@H]5[C@H](O)[C@H]3O)[C@H]3COC(=O)[C@H]23)OCO4)cc(OC)c1O | 577 nM | – |
| N#CC1=C(N)Oc2cc(N)ccc2C1c1ccccc1Cl (stereo not drawn) | 10600 nM | – |

| Structure (SMILES) | AC35 [1] | other results |
| --- | --- | --- |
| CCCCc1ccc2nc(NC(=O)OC)[nH]c2c1 | < 50 nM | – |
| CCN(CCO)CCCOc1ccc2c(Nc3cc(CC(=O)Nc4cccc(F)c4)[nH]n3)ncnc2c1 | – | activity change, negative = cytotoxicity ([2]; at 1.6 µM (top of the series)): -35.4% (inactive) |
| CC(C)N1c2ccccc2C(c2ccc(F)cc2)C1/C=C/C(O)CC(O)CC(=O)O (stereo not drawn) | 2590 nM | – |
| C[C@@]1(C(=O)Nc2ccc(F)nc2)CCCN1c1nc(Nc2cc(C3CC3)[nH]n2)c2cccn2n1 | 458 nM | – |
| Cc1ccc(C2C(C#N)=C(N)Oc3cc(N)ccc32)cc1 (stereo not drawn) | – | activity change, negative = cytotoxicity ([2]; at 26 µM (top of the series)): -0.007% (inactive) |
| O=C(Nc1c(Cl)cncc1Cl)c1ccc(OC(F)F)c(OCC2CC2)c1 | – | activity change, negative = cytotoxicity ([2]; at 26 µM (top of the series)): -7.16% (inactive) |
| Cc1nc(Nc2ncc(C(=O)Nc3c(C)cccc3Cl)s2)cc(N2CCN(CCO)CC2)n1 | 26800 nM | – |
| N#CC1=C(N)Oc2cc(N)ccc2C12C(=O)Nc1ccc(Br)cc12 (stereo not drawn) | – | activity change, negative = cytotoxicity ([2]; at 26 µM (top of the series)): -13% (inactive) |
| CCC(C)(C)C(=O)O[C@H]1C[C@@H](C)C=C2C=C[C@H](C)[C@H](CC[C@@H]3C[C@@H](O)CC(=O)O3)[C@H]21 | – | activity change, negative = cytotoxicity ([2]; at 26 µM (top of the series)): -7.31% (inactive) |
| COc1cccc2c1C(=O)c1c(O)c3c(c(O)c1C2=O)C[C@@](O)(C(=O)CO)C[C@@H]3O[C@H]1C[C@H](N)[C@H](O)[C@H](C)O1 | < 50 nM | – |
| CN1c2ccc(-c3ccc(C#N)cc3)cc2[C@H]2[C@H](CCN2S(=O)(=O)c2ccc(F)cc2)[C@H]1CO | – | activity change, negative = cytotoxicity ([2]; at 26 µM (top of the series)): -15.7% (inactive) |
| COc1ccc(-c2ccc3c(c2)[C@H]2[C@H](CCN2S(=O)(=O)c2ccc(OC)cc2)[C@@H](CO)N3C)cc1 | 3190 nM | – |
| CCC(C)C(=O)OC1CC(C)C=C2C=CC(C)C(CCC(O)CC(O)CC(=O)O)C21 (stereo not drawn) | 45300 nM | – |
| N#Cc1ccc(-c2ccc3c(c2)[C@H]2[C@H](CCN2S(=O)(=O)c2cccc(F)c2)[C@@H](CO)N3)cc1 | 7800 nM | – |
| COc1cc(C2C(C#N)=C(N)Oc3cc(N(C)C)ccc32)cc2c1OCO2 (stereo not drawn) | 132 nM | – |
| Nc1ccn([C@@H]2O[C@H](CO)[C@H](O)C2O)c(=O)n1 (stereo partly drawn) | 585 nM | – |
| Clc1ccc(-c2cnc3ccc(-c4ccccc4)cn23)cc1 | – | activity change, negative = cytotoxicity ([2]; at 6 µM (top of the series)): -1.71% (inactive) |
| COc1ccc(C2C(C#N)=C(N)Oc3cc(N)ccc32)cc1 (stereo not drawn) | – | activity change, negative = cytotoxicity ([2]; at 26 µM (top of the series)): -6.57% (inactive) |
| COc1ccccc1C1C(C#N)=C(N)Oc2cc(N)ccc21 (stereo not drawn) | – | activity change, negative = cytotoxicity ([2]; at 26 µM (top of the series)): -24.3% (inactive) |
| N#CC1=C(N)Oc2cc(O)ccc2C1c1cccc(Br)c1 (stereo not drawn) | 2720 nM | – |
| COc1ccccc1S(=O)(=O)N1CC[C@@H]2[C@@H](CO)Nc3ccc(-c4ccc(C#N)cc4)cc3[C@@H]21 | 10500 nM | – |
| COc1ccc(C2=Nn3c(nnc3-c3ccccc3)SC2)cc1OC | – | activity change, negative = cytotoxicity ([2]; at 26 µM (top of the series)): -10.7% (inactive) |
| Nc1ncnc2c1c(-c1cccc(OCc3ccccc3)c1)cn2C1CC(CN2CCCC2)C1 (stereo not drawn) | 10500 nM | – |
| COc1ccc(C2=Nn3c(nnc3-c3ccccc3F)SC2)cc1OC | 3340 nM | – |
| COc1cccc(S(=O)(=O)N2CC[C@@H]3[C@@H](CO)Nc4ccc(-c5ccc(C#N)cc5)cc4[C@@H]32)c1 | 21000 nM | – |
| N#CC1=C(N)Oc2cc(OC(=O)c3ccccc3)ccc2C1c1cccc(Br)c1 (stereo not drawn) | 3080 nM | – |

| Structure (SMILES) | AC35 [1] | other results |
| --- | --- | --- |
| Cc1ccccc1C1C(C#N)=C(N)Oc2cc(N)ccc21 (stereo not drawn) | 13200 nM | – |
| CC[C@@]1(O)C(=O)OCc2c1cc1n(c2=O)Cc2cc3c(CN(C)C)c(O)ccc3nc2-1 | 29 nM | – |
| COc1ccc(-c2cc(NC(C)=O)c3ncc(-c4ccc(OC)c(OC)c4)n3c2)cc1 | – | activity change, negative = cytotoxicity ([2]; at 26 µM (top of the series)): -8.1% (inactive) |
| CC[C@]1(O)CC2CN(CCc3c([nH]c4ccccc34)[C@@](C(=O)OC)(c3cc4c(cc3OC)N(C=O)[C@H]3[C@@](O)(C(=O)OC)[C@H](OC(C)=O)[C@]5(CC)C=CCN6CC[C@]43[C@@H]65)C2)C1 (stereo partly drawn) | < 1.5 nM | – |
| O=C(c1cc(Cc2n[nH]c(=O)c3ccccc23)ccc1F)N1CCN(C(=O)C2CC2)CC1 | 2300 nM | – |
| N#Cc1ccc(-c2ccc3c(c2)[C@H]2[C@H](CCN2S(=O)(=O)c2ccccc2F)[C@@H](CO)N3)cc1 | 11000 nM | – |
| COc1ccc(S(=O)(=O)N2CC[C@@H]3[C@H](CO)Nc4ccc(-c5ccc(C#N)cc5)cc4[C@@H]32)cc1 | 7920 nM | – |
| COc1ccc(C2=Nn3c(nnc3-c3ccccc3Cl)SC2)cc1OC | 427 nM | – |
| Clc1ccccc1-c1nnc2n1N=C(c1ccc3c(c1)OCO3)CS2 | 411 nM | – |
| COc1ccc(-c2cc(NC=O)c3ncc(-c4ccc(OC)c(OC)c4)n3c2)cc1 | 563 nM | – |
| COc1ccc(NC(=O)Nc2ccc3c(c2)C(=O)N([C@@H](C)CO)C[C@H](C)[C@H](CN(C)Cc2ccc4c(c2)OCO4)O3)cc1 | – | activity change, negative = cytotoxicity ([2]; at 12 µM (top of the series)): -31.5% (inactive) |
| COc1ccc(C2=Nn3c(nnc3-c3ccccc3OC)SC2)cc1OC | 61.3 nM | – |
| COc1cccc(C2C(C#N)=C(N)Oc3cc(N)ccc32)c1 (stereo not drawn) | 571 nM | – |
| N#CC1=C(N)Oc2cc(N)ccc2C1c1cccc(F)c1 (stereo not drawn) | 1770 nM | – |
| CC1(C)CC(c2nc(-c3ccc4ccc(-c5ccccc5)nc4c3)c3c(N)nccn23)C1 | 4500 nM | – |
| N#CC1=C(N)Oc2cc3c(cc2C1c1cccc(Br)c1)OCO3 (stereo not drawn) | 49.7 nM | – |
| COc1ccc(S(=O)(=O)N(C(C)=O)c2ccc(OC(C)=O)c3ccccc23)cc1[N+](=O)[O-] | 4460 nM | – |
| Cc1cccc(C2C(C#N)=C(N)Oc3cc(N)ccc32)c1 (stereo not drawn) | 689 nM | – |
| COc1ccc(C(=O)CC2(O)C(=O)Nc3c(Cl)ccc(Cl)c32)cc1 (stereo not drawn) | 2930 nM | – |
| CCc1c2c(nc3ccc(O)cc13)-c1cc3c(c(=O)n1C2)COC(=O)C3(O)CC (stereo not drawn) | 1.99 nM | – |
| COc1ccc(CNc2nc(N3CCC[C@H]3CO)ncc2C(=O)NCc2ncccn2)cc1Cl | – | activity change, negative = cytotoxicity ([2]; at 26 µM (top of the series)): -6.81% (inactive) |
| N#CC1=C(N)Oc2cc(N)ccc2C1c1ccccc1 (stereo not drawn) | 12800 nM | – |
| CCOC(=O)CCNc1cc(N2CCc3ccccc3CC2)nc(-c2ccccn2)n1 | 2590 nM | – |
| CN1c2ccc(-c3ccc(C#N)cc3)cc2[C@H]2[C@H](CCN2S(=O)(=O)c2cccc(F)c2)[C@H]1CO | 3760 nM | – |
| Cn1cc(-c2ccncc2)c(-c2ccc(OCc3ccc4ccccc4n3)cc2)n1 | 20000 nM | – |
| COc1ccccc1-c1nnc2n1N=C(c1ccc3c(c1)OCO3)CS2 | 20.7 nM | – |
